Laboratory results as given in patent publication US6914045B2, “Glycopeptide antibiotics” (Wyeth Holdings Corporation, priority 2001, dated 2005).
≈ marks a conversion by molar mass, not a printed value.

Key:
Experiment in all cases: in vitro antibacterial evaluation, MIC by broth dilution
Format in all cases: cell-based
Escherichia coli = tested on: Escherichia coli
Method in brief: (§1)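 Following National Committee for Clinical Laboratory Standards recommendations (M7-A2), susceptibility was measured by dilution in Muller-Hinton II […]. Bacteria were seeded at 5×10^5 CFU/mL against compound concentrations from 64 down to 0.06 μg/mL.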

Staphylococcus sp. = details: broth dilution, 18 hours at 35° C.; for MIC Staphylococcus aureus (GC 1131): strain GC 1131
Method in brief: as §1

Enterococcus sp. = details: broth dilution, 18 hours at 35° C.; for MIC Enterococcus faecalis (ATCC 29212): strain ATCC 29212; for MIC Enterococcus faecalis (GC 2242): strain GC 2242; for MIC Enterococcus faecium (GC 2243): strain GC 2243; for MIC Enterococcus faecalis (GC 2691): strain GC 2691; for MIC Enterococcus faecalis (GC 3059): strain GC 3059; for MIC Enterococcus faecalis (GC 4552): strain GC 4552; for MIC Enterococcus faecalis (GC 4553): strain GC 4553; for MIC Enterococcus faecalis (GC 4554): strain GC 4554; for MIC Enterococcus faecium (GC 4556): strain GC 4556; for MIC Enterococcus faecium (GC 4557): strain GC 4557; for MIC Enterococcus avium (GC 4558): strain GC 4558; for MIC Enterococcus faecalis (GC 6189): strain GC 6189
Method in brief: as §1

Streptococcus sp. = details: broth dilution, 18 hours at 35° C.; for MIC Streptococcus pneumoniae (ATCC 6301): strain ATCC 6301; for MIC Streptococcus pneumoniae (GC 1894): strain GC 1894; for MIC Streptococcus pyogenes (GC 4563): strain GC 4563; for MIC Streptococcus agalactiae (GC 4564): strain GC 4564; for MIC Streptococcus pneumoniae (GC 4565): strain GC 4565
Method in brief: as §1

CC(c1ccccc1)C1NC(=O)CNC(=O)C(CO)NC(=O)C(C(O)C2CNC(=N)N2C2OC(CO)C(O)C(O)C2O)NC(=O)C(C(O)C2CNC(=N)N2)NC(=O)C(Cc2ccc(OC3OC(CO)C(OC4OC5COC(c6ccc(-c7cccs7)cc6)OC5C(O)C4O)C(O)C3O)cc2)NC1=O (stereo not drawn) [Example 163]
MIC Escherichia coli (ATCC 25922) (Escherichia coli; strain ATCC 25922, 18 hours at 35° C.): >64 µg/mL | MIC Escherichia coli (GC 4559) (Escherichia coli; strain GC 4559, 18 hours at 35° C.): 64 µg/mL (≈ 43.7 µM) | MIC Escherichia coli (GC 4560) (Escherichia coli; strain GC 4560, 18 hours at 35° C.): 8 µg/mL (≈ 5.46 µM) | MIC Staphylococcus aureus (GC 1131) (Staphylococcus sp.; inoculum 5×10^5 CFU/mL): 4 µg/mL (≈ 2.73 µM) | MIC Staphylococcus aureus (ATCC 29213) (Staphylococcus sp.; strain ATCC 29213): 4 µg/mL (≈ 2.73 µM) | MIC Staphylococcus aureus (GC 1131) (Staphylococcus sp.): 4 µg/mL (≈ 2.73 µM) | MIC Staphylococcus aureus (GC 3051) (Staphylococcus sp.; strain GC 3051): 8 µg/mL (≈ 5.46 µM) | MIC Staphylococcus aureus (GC 3053) (Staphylococcus sp.; strain GC 3053): 8 µg/mL (≈ 5.46 µM) | MIC Staphylococcus aureus (GC 4541) (Staphylococcus sp.; strain GC 4541): 4 µg/mL (≈ 2.73 µM) | MIC Staphylococcus aureus (GC 4542) (Staphylococcus sp.; strain GC 4542): 4 µg/mL (≈ 2.73 µM) | MIC Staphylococcus aureus-SMITH (GC 4543) (Staphylococcus sp.; strain GC 4543): 1 µg/mL (≈ 0.682 µM) | MIC Staphylococcus aureus (GC 4544) (Staphylococcus sp.; strain GC 4544): 4 µg/mL (≈ 2.73 µM) | MIC Staphylococcus aureus (GC 4545) (Staphylococcus sp.; strain GC 4545): 4 µg/mL (≈ 2.73 µM) | MIC Staphylococcus haemolyticus (GC 4546) (Staphylococcus sp.; strain GC 4546): 4 µg/mL (≈ 2.73 µM) | MIC Coagulase Negative Staphylococcus (GC 4547) (Staphylococcus sp.; strain GC 4547): 8 µg/mL (≈ 5.46 µM) | MIC Coagulase Negative Staphylococcus (GC 4548) (Staphylococcus sp.; strain GC 4548): 1 µg/mL (≈ 0.682 µM) | MIC Coagulase Negative Staphylococcus (GC 4549) (Staphylococcus sp.; strain GC 4549): 4 µg/mL (≈ 2.73 µM) | MIC Coagulase Negative Staphylococcus (GC 4551) (Staphylococcus sp.; strain GC 4551): 2 µg/mL (≈ 1.36 µM) | MIC Coagulase Negative Staphylococcus (GC 6257) (Staphylococcus sp.; strain GC 6257): 2 µg/mL (≈ 1.36 µM) | MIC Staphylococcus aureus-SMITH (GC 4543) (Staphylococcus sp.; strain SMITH GC 4543): 1 µg/mL (≈ 0.682 µM) | MIC Enterococcus faecalis (ATCC 29212) (Enterococcus sp.; inoculum 5×10^5 CFU/mL): 8 µg/mL (≈ 5.46 µM) | MIC Enterococcus faecalis (GC 2242) (Enterococcus sp.; inoculum 5×10^5 CFU/mL): 4 µg/mL (≈ 2.73 µM) | MIC Enterococcus faecium (GC 2243) (Enterococcus sp.; inoculum 5×10^5 CFU/mL): 8 µg/mL (≈ 5.46 µM) | MIC Enterococcus faecalis (GC 2691) (Enterococcus sp.; inoculum 5×10^5 CFU/mL): 4 µg/mL (≈ 2.73 µM) | MIC Enterococcus faecalis (GC 3059) (Enterococcus sp.; inoculum 5×10^5 CFU/mL): 8 µg/mL (≈ 5.46 µM) | MIC Enterococcus faecalis (GC 4552) (Enterococcus sp.; inoculum 5×10^5 CFU/mL): 8 µg/mL (≈ 5.46 µM) | MIC Enterococcus faecalis (GC 4553) (Enterococcus sp.; inoculum 5×10^5 CFU/mL): 4 µg/mL (≈ 2.73 µM) | MIC Enterococcus faecalis (GC 4554) (Enterococcus sp.; inoculum 5×10^5 CFU/mL): 8 µg/mL (≈ 5.46 µM) | MIC Enterococcus faecium (GC 4556) (Enterococcus sp.; inoculum 5×10^5 CFU/mL): 4 µg/mL (≈ 2.73 µM) | MIC Enterococcus faecium (GC 4557) (Enterococcus sp.; inoculum 5×10^5 CFU/mL): 8 µg/mL (≈ 5.46 µM) | MIC Enterococcus avium (GC 4558) (Enterococcus sp.; inoculum 5×10^5 CFU/mL): 4 µg/mL (≈ 2.73 µM) | MIC Enterococcus faecalis (GC 6189) (Enterococcus sp.; inoculum 5×10^5 CFU/mL): 4 µg/mL (≈ 2.73 µM) | MIC Enterococcus faecalis (ATCC 29212) (Enterococcus sp.): 8 µg/mL (≈ 5.46 µM) | MIC Enterococcus faecalis (GC 2242) (Enterococcus sp.): 4 µg/mL (≈ 2.73 µM) | MIC Enterococcus faecium (GC 2243) (Enterococcus sp.): 8 µg/mL (≈ 5.46 µM) | MIC Enterococcus faecalis (GC 2691) (Enterococcus sp.): 4 µg/mL (≈ 2.73 µM) | MIC Enterococcus faecalis (GC 3059) (Enterococcus sp.): 8 µg/mL (≈ 5.46 µM) | MIC Enterococcus faecalis (GC 4552) (Enterococcus sp.): 8 µg/mL (≈ 5.46 µM) | MIC Enterococcus faecalis (GC 4553) (Enterococcus sp.): 4 µg/mL (≈ 2.73 µM) | MIC Enterococcus faecalis (GC 4554) (Enterococcus sp.): 8 µg/mL (≈ 5.46 µM) | MIC Enterococcus faecium (GC 4556) (Enterococcus sp.): 4 µg/mL (≈ 2.73 µM) | MIC Enterococcus faecium (GC 4557) (Enterococcus sp.): 8 µg/mL (≈ 5.46 µM) | MIC Enterococcus avium (GC 4558) (Enterococcus sp.): 4 µg/mL (≈ 2.73 µM) | MIC Enterococcus faecalis (GC 6189) (Enterococcus sp.): 4 µg/mL (≈ 2.73 µM) | MIC Streptococcus pneumoniae (ATCC 6301) (Streptococcus sp.; inoculum 5×10^5 CFU/mL): <0.5 µg/mL | MIC Streptococcus pneumoniae (GC 1894) (Streptococcus sp.; inoculum 5×10^5 CFU/mL): <0.5 µg/mL | MIC Streptococcus pyogenes (GC 4563) (Streptococcus sp.; inoculum 5×10^5 CFU/mL): <0.5 µg/mL | MIC Streptococcus agalactiae (GC 4564) (Streptococcus sp.; inoculum 5×10^5 CFU/mL): <0.5 µg/mL | MIC Streptococcus pneumoniae (GC 4565) (Streptococcus sp.; inoculum 5×10^5 CFU/mL): 1 µg/mL (≈ 0.682 µM) | MIC Streptococcus pneumoniae (ATCC 6301) (Streptococcus sp.): <0.5 µg/mL | MIC Streptococcus pneumoniae (GC 1894) (Streptococcus sp.): <0.5 µg/mL | MIC Streptococcus pyogenes (GC 4563) (Streptococcus sp.): <0.5 µg/mL | MIC Streptococcus agalactiae (GC 4564) (Streptococcus sp.): <0.5 µg/mL | MIC Streptococcus pneumoniae (GC 4565) (Streptococcus sp.): 1 µg/mL (≈ 0.682 µM)
